Assay [1] relates to NF-κB. The assay is described as follows: 293-cell pNF-κB-luc reporter assay, TNF-α induced. Particulars: HEK293 cells, NF-κB driven luciferase expression; read-out: 293/NFkB-luc EC50. The format is cell-based. The protocol: (§1) Inhibition of NF-κB in cells by the compound of Example 1. Two reporter cell assays were used to determine the ability of the compound of Example 1 to inhibit NE-KB driven transcription. The first assay was a 293-cell based assay with a stably integrated pNF-κB-luc reporter plasmid containing 3 NF-κB promoter elements. The second assay was a 293-cell based assay with a stably integrated pTRH1-NF-κB-dscGFP reporter containing 4 NF-κB promoter elements. Cells were treated with 0, 0.2, 1, 10, 20 and 40 μM of the compound of Example 1 for 2 hours then were induced with 20 ng/ml TNF-α for 18 hours. Following the induction, luminescence or fluorescence was quantified using a Beckman-Coulter 2300 plate reader. […] These values represent the median value generated from three independent experiments±the standard error. As a control, 0.5% DMSO treated and untreated cells were compared to verify that the Example 1 carrier had no effect on the expression of luciferase or in the readout of the assay. There was a slight decrease in the output from the assay in the DMSO treated population although it was not statistically significant. As a result of the controls, the decrease in activity in the drug treated samples was compared to the DMSO control sample.

Assay [2] has as its system NF-κB. The experiment in a line: 293-cell pTRH1-NF-κB-dscGFP reporter assay, TNF-α induced. Particulars: Homo sapiens, HEK293, HEK293 cells, NF-κB driven GFP expression; read-out: NF-kB/293/GFP EC50. The format is cell-based. The procedure: as §1
Background: In a reporter assay the amount or activity of a reporter protein is the signal.

Assay [3] relates to IL-6 release from RAW264.7 cells. The experiment in a line: IL-6 release from LPS stimulated RAW264.7 cells. The format is cell-based, mouse. The procedure:
Specifically, A and B show the effects of the compound of Example 1 on soluble PGE2 and Il-6 secretion from RAW264.7 cells stimulated by 1 μg/mL of LPS. The cells were treated with the indicated concentrations of the compound of Example 1 for 2 hours, and then LPS was added and incubation continued for 4 hours. […]

Assay [4] has as its system PGE2 release from RAW264.7 cells. The assay is described as follows: PGE2 release from LPS stimulated RAW264.7 cells. The format is cell-based, mouse. Particulars: Mus musculus, RAW264.7, RAW 264.7 cells. The protocol: Specifically, A and B show the effects of the compound of Example 1 on soluble PGE2 and Il-6 secretion from RAW264.7 cells stimulated by 1 μg/mL of LPS. The cells were treated with the indicated concentrations of the compound of Example 1 for 2 hours, and then LPS was added and incubation continued for 4 hours.
LPS stimulation induces the expression of COX-2 the enzyme responsible for prostaglandin E2.

Assay [5] concerns the target p65 (RelA) (Homo sapiens, UniProt Q04206). The experiment in a line: TransAM NF-κB Family DNA Binding ELISA, p65. Particulars: p65 binding IC50 (uM), binding to NF-κB sites. In general terms: In an ELISA, binding on a coated surface is turned into a signal by an enzyme label.
Description: (§2) Treated samples were then transferred to 30 μL Complete Binding Buffer (with DTT) in microplate wells pre-coated with the NF-κB consensus oligonucleotide. […] The plate was incubated for 1 hour at room temperature with gentle shaking and then washed 3 times with 200 μL 1× Wash Buffer. NF-κB p65, p50, p52, RelB, or c-Rel subunits bound to the plate were detected with 100 μL of the primary antibody (diluted 1:1000 in 1× Antibody Buffer) specific for that subunit. The plate was incubated for 1 hour at room temperature and then washed 3 times with 200 μL 1× Wash Buffer. Next, 100 μL of a HRP conjugated goat anti-rabbit antibody (diluted 1:1,000 in 1× Antibody Buffer) was added to each well. The plate was incubated for 1 hour at room temperature and then washed 4 times with 200 μL 1× Wash Buffer. 100 μL of room temperature Developing Solution was added to each well. The reaction was allowed to develop for 2-10 minutes until a medium dark blue color developed (depending on the subunit activity in the lot of extract or lot of recombinant protein used) and then the reaction was stopped with 100 μL Stop Solution yielding a yellow color. Absorbance was recorded using a Becton-Dickinson DTX 880 Multimode Detector at 450 nm with a reference wavelength subtracted at 620 nm.
Assay [6] has as its target T1, p50 (Homo sapiens, UniProt P19838).
T1 sequence (P19838 1-433 limits assumed): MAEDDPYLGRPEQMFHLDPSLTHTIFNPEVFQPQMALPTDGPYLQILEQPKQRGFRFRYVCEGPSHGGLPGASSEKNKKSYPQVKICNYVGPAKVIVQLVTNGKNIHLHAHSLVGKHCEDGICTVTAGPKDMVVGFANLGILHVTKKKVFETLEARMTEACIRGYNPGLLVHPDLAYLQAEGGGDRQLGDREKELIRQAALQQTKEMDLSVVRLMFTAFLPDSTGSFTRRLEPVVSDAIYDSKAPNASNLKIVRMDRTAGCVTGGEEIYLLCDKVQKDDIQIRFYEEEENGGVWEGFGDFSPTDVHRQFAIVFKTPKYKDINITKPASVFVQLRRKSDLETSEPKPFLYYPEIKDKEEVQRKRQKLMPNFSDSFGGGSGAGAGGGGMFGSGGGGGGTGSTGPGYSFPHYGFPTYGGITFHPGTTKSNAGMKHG
The assay is described as follows: TransAM NF-κB Family DNA Binding ELISA, p50. As to conditions: for IC50: p50 binding IC50 (uM), cells without % sign; for inhibition at 5 µM: read-out: p50 binding % inhibit. at 5 uM.
Description: as §2

Assay [7] deals with T2, p52 (Homo sapiens, UniProt Q00653).
T2 sequence (Q00653 1-454 limits assumed): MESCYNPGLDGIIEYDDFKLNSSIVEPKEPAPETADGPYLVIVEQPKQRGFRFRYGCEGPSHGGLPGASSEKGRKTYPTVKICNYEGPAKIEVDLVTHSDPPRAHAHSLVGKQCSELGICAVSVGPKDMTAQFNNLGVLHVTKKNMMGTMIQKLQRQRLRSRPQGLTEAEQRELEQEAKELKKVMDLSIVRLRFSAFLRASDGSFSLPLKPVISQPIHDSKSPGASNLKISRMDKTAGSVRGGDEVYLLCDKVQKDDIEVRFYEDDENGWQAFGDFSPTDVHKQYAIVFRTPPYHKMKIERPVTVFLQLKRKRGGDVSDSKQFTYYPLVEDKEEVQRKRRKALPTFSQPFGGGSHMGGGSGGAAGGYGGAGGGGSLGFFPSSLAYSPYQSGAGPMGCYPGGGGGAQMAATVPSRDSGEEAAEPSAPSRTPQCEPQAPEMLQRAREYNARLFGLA
The assay is described as follows: TransAM NF-κB Family DNA Binding ELISA, p52. As to conditions: for IC50: p52 binding IC50 (uM), cells without % sign; for inhibition at 5 µM: read-out: p52 binding % inhibit. at 5 uM, at 5 uM.

The target in assay [8] is T3, RelB (Homo sapiens, UniProt Q01201).
T3 sequence (Q01201 1-579): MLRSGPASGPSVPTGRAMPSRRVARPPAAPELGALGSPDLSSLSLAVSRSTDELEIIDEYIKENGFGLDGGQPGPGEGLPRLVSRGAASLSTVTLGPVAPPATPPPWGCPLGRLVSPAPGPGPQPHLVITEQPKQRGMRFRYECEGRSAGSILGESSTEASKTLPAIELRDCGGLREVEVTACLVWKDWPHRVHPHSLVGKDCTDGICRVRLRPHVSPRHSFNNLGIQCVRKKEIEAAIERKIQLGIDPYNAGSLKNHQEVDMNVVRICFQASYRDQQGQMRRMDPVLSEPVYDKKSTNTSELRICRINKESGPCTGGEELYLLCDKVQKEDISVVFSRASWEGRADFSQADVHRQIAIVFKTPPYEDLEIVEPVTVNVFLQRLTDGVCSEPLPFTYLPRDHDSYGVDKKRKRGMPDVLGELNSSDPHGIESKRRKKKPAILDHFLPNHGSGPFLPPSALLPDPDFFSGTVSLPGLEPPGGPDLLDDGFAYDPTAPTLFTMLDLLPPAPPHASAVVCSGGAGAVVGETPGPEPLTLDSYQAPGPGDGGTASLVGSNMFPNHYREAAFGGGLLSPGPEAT
T3 sequence (Q00653 1-454 partner limits assumed): T2 sequence (Q00653 1-454 limits assumed)
The assay is described as follows: TransAM NF-κB Family DNA Binding ELISA, RelB. Particulars: for inhibition at 5 µM: read-out: RelB binding % inhibit. at 5 uM, at 5 uM; for IC50: RelB binding IC50 (uM), cells without % sign.

For assay [9], the target named is T4, c-Rel (Homo sapiens, UniProt Q04864).
T4 sequence (Q04864 2-619 limits assumed): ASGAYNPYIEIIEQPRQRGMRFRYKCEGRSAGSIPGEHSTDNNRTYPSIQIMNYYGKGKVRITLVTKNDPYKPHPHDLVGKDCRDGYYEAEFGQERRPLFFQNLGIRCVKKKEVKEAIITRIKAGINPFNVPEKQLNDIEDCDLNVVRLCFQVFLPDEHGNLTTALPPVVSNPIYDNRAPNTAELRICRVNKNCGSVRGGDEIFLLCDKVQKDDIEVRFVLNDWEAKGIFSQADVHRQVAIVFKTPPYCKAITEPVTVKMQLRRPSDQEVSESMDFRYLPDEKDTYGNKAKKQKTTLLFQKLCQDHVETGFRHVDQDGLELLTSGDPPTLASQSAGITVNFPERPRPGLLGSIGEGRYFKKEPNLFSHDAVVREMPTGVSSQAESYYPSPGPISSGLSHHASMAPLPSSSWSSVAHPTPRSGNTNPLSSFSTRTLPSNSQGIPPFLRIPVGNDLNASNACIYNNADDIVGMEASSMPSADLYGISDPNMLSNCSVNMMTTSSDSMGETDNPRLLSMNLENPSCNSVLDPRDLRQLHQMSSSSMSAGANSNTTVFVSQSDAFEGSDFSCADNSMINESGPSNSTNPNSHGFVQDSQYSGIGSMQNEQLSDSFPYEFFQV
The assay is described as follows: TransAM NF-κB Family DNA Binding ELISA, c-Rel. Particulars: for inhibition at 5 µM: read-out: c-Rel binding % inhibit. at 5 uM, at 5 uM; for IC50: c-Rel binding IC50 (uM), cells without % sign.

Setting [10] is: Mus musculus, RAW264.7, RAW 264.7 cells.

Chain of p65 (RelA) (Q04206 whole entry): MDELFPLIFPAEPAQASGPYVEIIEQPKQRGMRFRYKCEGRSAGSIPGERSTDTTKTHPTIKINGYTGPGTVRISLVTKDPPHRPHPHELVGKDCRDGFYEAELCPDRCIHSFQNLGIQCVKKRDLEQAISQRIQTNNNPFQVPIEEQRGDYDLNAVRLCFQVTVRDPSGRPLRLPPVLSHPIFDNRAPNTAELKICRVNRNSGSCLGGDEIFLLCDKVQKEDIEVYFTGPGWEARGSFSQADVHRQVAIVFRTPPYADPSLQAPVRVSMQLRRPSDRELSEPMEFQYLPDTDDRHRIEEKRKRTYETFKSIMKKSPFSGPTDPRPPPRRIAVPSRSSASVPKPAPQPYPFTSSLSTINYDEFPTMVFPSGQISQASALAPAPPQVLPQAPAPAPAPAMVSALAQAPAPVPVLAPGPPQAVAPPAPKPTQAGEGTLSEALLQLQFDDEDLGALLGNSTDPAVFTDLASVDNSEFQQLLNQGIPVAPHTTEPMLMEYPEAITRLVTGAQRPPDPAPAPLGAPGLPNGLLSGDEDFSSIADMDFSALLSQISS

For `O=C(NC1=CC(=O)C2OC2C1O)c1cnc2ccc(Cl)cc2c1O` (racemic) [Example 5, (±)-6-chloro-4-hydroxy-quinoline-3-carboxylic acid-(2-hydroxy-5-oxo-7-oxa-bicyclo[4.1.0]hept-3-en-3-yl)-amide], the EC50 in assay [1] is above 38 µM; in [2] it was above 38 µM; in [3] (setting [10]), 0.43 µM; in assay [4], 6.5 µM. For the same compound, the IC50 in assay [5] was 230 µM; in assay [6] it was above 481 µM; in assay [7], above 481 µM. The figures for the inhibition at 5 µM in assay [8] and in assay [9] were 0% and 12%, respectively.
In the case of `COc1c(C(=O)NC2=CC(=O)C3OC3C2O)ccc2cccnc12` (racemic) [Example 29, (±)-N-(2-hydroxy-5-oxo-7-oxabicyclo[4.1.0]hept-3-en-3-yl)-8-methoxyquinoline-7-carboxamide], the EC50 in assay [1] amounted to 0.46 µM; in [2], 2.2 µM; in assay [3] (setting [10]), 0.16 µM. Besides, the IC50 was determined as 4.5 µM in assay [5]; 129 µM in assay [6]; 59 µM in assay [7]; 12 µM in assay [8]; 11 µM in assay [9].
With `Cc1ccc(C(=O)NC2=CC(=O)C3OC3C2O)c(O)n1` (racemic) [Example 10, (±)-2-hydroxy-N-(2-hydroxy-5-oxo-7-oxa-bicyclo[4.1.0]hept-3-en-3-yl)-6-methyl-nicotinamide], the EC50 in assay [1] was 19 µM; in [2] it was 4.5 µM; in assay [3] (setting [10]), below 0.24 µM; in assay [4] it was 1.1 µM. Further, in [5], the IC50 is 2.8 µM. Besides, the inhibition at 5 µM in assay [6] worked out at 6%; in [7], 11%; in assay [8] it was 27%; in assay [9] it was 54%.
With `COc1cccnc1C(=O)NC1=CC(=O)C2OC2C1O` (racemic) [Example 20, (±)-3-methoxy-pyridine-2-carboxylic acid (2-hydroxy-5-oxo-7-oxa-bicyclo[4.1.0]hept-3-en-3-yl)-amide], the EC50 in assay [1] worked out at 9.6 µM; in assay [2] it was 7.7 µM; in assay [3] (RAW 264.7 cells), 1.4 µM. The compound further showed an IC50 in assay [5] of 5.8 µM. The inhibition at 5 µM in assay [6] stood at 1%; in assay [7], 18%; in [8], 29%; in assay [9], 40%.
For the compound `COc1nccnc1C(=O)NC1=CC(=O)C2OC2C1O` (racemic) [Example 26, (±)-3-methoxy-pyrazine-2-carboxylic acid (2-hydroxy-5-oxo-7-oxa-bicyclo[4.1.0]hept-3-en-3-yl)-amide], the EC50 turned out to be 16 µM in assay [1], 11 µM in [2] and 1.6 µM in [3] (setting [10]). The IC50 was 4.7 µM in assay [5]; 246 µM in assay [6]; 84 µM in assay [7]; 12 µM in [8]; 14 µM in [9].
Regarding `O=C(NC1=CC(=O)C2OC2C1=O)c1cc2ccccc2nc1O` (racemic) [Example 28, (±)-N-(2,5-dioxo-7-oxabicyclo[4.1.0]hept-3-en-3-yl)-2-hydroxyquinoline-3-carboxamide], the EC50 in assay [1] is 2.7 µM; in assay [2], 4.2 µM; in assay [3] (setting [10]), 0.19 µM. Also, the IC50 in assay [5] stood at 3 µM; in [6] it was 20 µM; in assay [7], 9.6 µM; in assay [8] it was 3 µM; in [9] it was 4.5 µM.
As to `COc1ncccc1C(=O)NC1=CC(=O)C2OC2C1O` (racemic) [Example 16, (±)-N-(2-hydroxy-5-oxo-7-oxa-bicyclo[4.1.0]hept-3-en-3-yl)-2-methoxy-nicotinamide], the values for the EC50 in assay [1], in assay [2] and in [3] (setting [10]) were 7.1 µM, 1.2 µM and 0.64 µM, respectively. The IC50 in [5] came out at 0.88 µM; in assay [6], 20 µM; in assay [7], 3.7 µM; in assay [8], 1.7 µM; in assay [9] it was 0.8 µM.
Take `O=C(NC1=CC(=O)C2OC2C1O)c1cnc(-c2ccccc2)nc1O` (racemic) [Example 8, (±)-4-hydroxy-2-phenylpyrimidine-5-carboxylic acid (2-hydroxy-5-oxo-7-oxa-bicyclo[4.1.0]hept-3-en-3-yl)-amide]: the EC50 in assay [1] worked out at 37 µM; in assay [2], 10 µM; in [3] (setting [10]), 2.2 µM; in assay [4] it was 26.2 µM. Further, the inhibition at 5 µM worked out at 16% in assay [6], 17% in assay [7], 21% in assay [8] and 46% in assay [9].

The term IC50 denotes the concentration at which inhibition is half-maximal. High values mean weaker potency in that assay, low ones greater potency in that assay.

For the origin of these results see patent US8629164B2, “Inhibitors of NF-κB” (Profectus Biosciences, Inc., priority 2009, dated 2014).
